Reference: US3991200A, “Substituted nitroimidazolyl thiadiazoles and oxadiazoles as antibacterial agents and growth promoting compounds” (American Cyanamid Company, priority 1973, dated 1976)
Like-named read-outs stand apart in the source and are kept apart here.

Experiments:
Salmonella gallinarum = assay: controlling fowl typhoid in chicks, medicated feed; type: in vivo, Salmonella gallinarum (in sex-linked pullet chicks); conditions: 10 days
Method: Groups of five one-day old sex-linked pullet checks are infected orally by gavage with 0.5 ml. of a 10^-^2 dilution of a five-hour Trypticase Soy Broth culture of Salmonella gallinarum, the causative agent of fowl typhoid. Each chick receives approximately 6 × 10^5 viable cells. Medication is administered continuously in the feed, beginning 3 hours before infection and continuing for 10 days, at which time the test is terminated and the number of survivors in each group recorded. Each test utilizes two control groups of chicks, the first group comprising 20 chicks which are infected and untreated, and the second group comprising 10 chicks which are uninfected and untreated. The results of the tests are set forth in the following Table III (in some instances, the results from two or more tests are combined): […]

Proteus mirabilis = assay: antibacterial activity in mice, Tests with Proteus mirabilis; type: in vivo, Proteus mirabilis (in Carworth Farms CFl-s female mice); conditions: 256 mg/kg
Method: (§1) Experiments were conducted to determine the antibacterial activity of compounds of the present invention against Proteus mirabilis, Staphylococus aureus strain Smith and Staphylococcus aureus strain Rose a tetracycline-resistant strain of Staphylococcus aureus. Infection was initiated in Carworth Farms CFl-s female mice (body weight […].) by intra-abdominal infection of 0.5 ml. of the broth dilutions of 5 hour cultures of the above organisms.

[1] = tested on: Staphylococcus aureus strain Smith; assay: antibacterial activity in mice, Tests with Staphylococcus aureus strain Smith; type: in vivo, Staphylococcus aureus (in Carworth Farms CFl-s female mice); conditions: read-out: Results alive/tested (converted)
Method: as §1

Pasteurella multocida [2] = assay: controlling a Pasteurella multocida infection in mice; type: in vivo, Pasteurella multocida (in Swiss Webster female mice); conditions: 336 h, 2 mg./mouse by gavage, two weeks post-infection, read-out: Survivors/Total (converted)
Method: Swiss Webster, female mice weighing 22±2 g. were infected by intrapeutoneal injection of 0.5 ml. of a 5 hour Trypticase Soy Broth culture containing 10^7 cfu. of P. multocida. Each mouse was given by gavage at the time of infection 2 mg. of the test drug suspended in 0.2% agar.

Pasteurella multocida [3] = assay: as above; type: in vivo, Pasteurella multocida (in Swiss Webster female mice); conditions: 336 h, two weeks post-infection, read-out: Survivors/Total (converted); for responders at 0.25 mg: 0.25 mg./mouse by gavage; for responders at 0.5 mg: 0.5 mg./mouse by gavage; for responders at 1 mg: 1 mg./mouse by gavage
[4] = tested on: Staphylococcus aureus strain Rose; assay: antibacterial activity in mice, Tests with Staphylococcus aureus strain Rose; type: in vivo, Staphylococcus aureus (in Carworth Farms CFl-s female mice); conditions: read-out: Results alive/tested (converted)
Method: as §1

bacteria = conditions: prior-art compounds; cited from earlier work
[5] = tested on: Salmonella choleraesuis var. kunzendorf; assay: controlling enteritis caused by Salmonella choleraesuis in swine, medicated feed; type: in vivo, Salmonella choleraesuis var. kunzendorf (in pigs)
Excerpt: In the late afternoon of the day before infection, feed is removed from all pens. The following morning each group receives 2.5 lbs. of feed mixed either with normal broth or broth containing Salmonella choleraesuis variety kunzendorf organisms. […] For the rest of the trial the pigs are observed and graded daily. […] The trial is terminated four weeks after infection.

[6] = tested on: Salmonella choleraesuis var. kunzendorf; assay: controlling enteritis, mice infected with Salmonella choleraesuis, medicated feed; type: in vivo; conditions: 10 mice tested
Method: Three groups of ten female Swiss Webster mice weighing 20 gm. are infected intraperitoneally with 0.5 ml. of 10^-^2 dilution of a five-hour Trypticase Soy Broth culture of Salmonella choleraesuis var. kunzendorf, the causitive agent of enteritis in pigs, an organism originally recovered from a field outbreak of Salmonella choleraesuis var. kunzendorf in pigs. Each mouse receives approximately 4.6 × 10^7 cells as the inoculating dose.
The mice are fed a medicated feed, which is a commercial mouse chow containing the compounds to be tested for 3 hours before the infection until 7 days after infection. The mice are held for an additional 7 days after the medication is stopped, and the number of survivors in each group recorded. The medicated feed is prepared by thoroughly admixing calculated amounts of the compounds with commercial mouse chow to provide essentially uniform distribution in the feed offered.

[7] = concentrations of drug in plasma of noninfected mice (agar-diffusion assay); type: in vivo; conditions: for Cmax: mouse, read-out: Peak concn. in plasma
Method: Concentrations of drug in plasma are determined by assay of blood obtained by heart puncture of noninfected mice. Blood samples (about 0.5 ml. per mouse) from 10 mice receiving the same dose of drug are pooled. The drug is assayed in the plasma by a standard agar-diffusion plate method with Bacillus subtilis (Lederle No. 17) as the test organism.

solubility in water = type: physicochemical
Escherichia coli = assay: controlling colibacillosis in chicks infected with Escherichia coli, single oral dose; type: in vivo, Escherichia coli (in sex-linked pullet chicks); conditions: 20 chicks tested, 12 days after treatment
Method: Three groups of 10 five-day old sex-linked pullet chicks are infected parenterally, in the left thoracic air sac, with 0.2 ml. of a 10^-^1 dilution of a Trypticase Soy Broth culture of Escherichia coli, the causative agent of colibacillosis in poultry. The compounds to be tested are administered by gavage as a single oral dose in an aqueous solution or suspension, and the chicks are permitted to feed ad libitum the feed composition prepared in Example 44. Twelve days after treatment, the test is terminated and the number of survivors in each group recorded.
Four groups of 40, five-day old sex-linked pullet chicks are infected in the same manner as herein set forth with Escherichia coli. […] Twelve days after treatment, the test is terminated and the number of survivors in each group recorded.

[8] = 0.025% in feed, 10 chicks tested
[9] = 0.006% in feed, 10 chicks tested

CN(C)C=Nc1nnc(-c2ncc([N+](=O)[O-])n2C)s1 [2-{2-[ (Dimethylaminomethylene)amino]-5-thiadiazolyl} -1-methyl-5-nitroimidazole]
Survivors (Salmonella gallinarum; 0.05% in feed, 5 chicks tested): 5 | Survivors (Salmonella gallinarum; 0.1% in feed, 5 chicks tested): 5 | Results alive/tested (Proteus mirabilis): 3/5 | responders at 64 mg/kg [1]: 100% | responders at 2 mg (Pasteurella multocida [2]): 100% | responders at 0.25 mg (Pasteurella multocida [3]): 80% | responders at 0.5 mg (Pasteurella multocida [3]): 97.5% | responders at 1 mg (Pasteurella multocida [3]): 93.3%

CN(C)c1nnc(-c2ncc([N+](=O)[O-])n2C)s1 [2-(2-Dimethylamino-5-thiadiazolyl)-1-methyl-5-nitroimidazole]
Survivors (Salmonella gallinarum; 0.1% in feed, 5 chicks tested): 4 | responders at 512 mg/kg ([1]; 512 mg/kg): 80%

Cn1c([N+](=O)[O-])cnc1-c1nnc(NC=O)s1 [2-(2-Formamido-5-Thiadiazolyl)-1-methyl-5-nitroimidazole]
Survivors (Salmonella gallinarum; 0.006% in feed, 15 chicks tested): 9 | Survivors (Salmonella gallinarum; 0.025% in feed, 15 chicks tested): 11 | Survivors (Salmonella gallinarum; 0.1% in feed, 10 chicks tested): 5 | responders at 64 mg/kg [1]: 100% | responders at 512 mg/kg [4]: 100% | responders at 2 mg (Pasteurella multocida [2]): 100% | responders at 0.25 mg (Pasteurella multocida [3]): 80% | responders at 0.5 mg (Pasteurella multocida [3]): 100% | responders at 1 mg (Pasteurella multocida [3]): 90%

CCOC(=O)N1CCN(c2nnc(-c3ncc([N+](=O)[O-])n3C)s2)CC1 [2[2-(4-Carbethoxy-1-piperazinyl)-5-thiadiazolyl]-1-methyl-5-nitroimidazole]
responders at 256 mg/kg [1]: 80%

CCn1c([N+](=O)[O-])cnc1-c1nnc(N)o1 [2-(2-Amino-5-oxadiazolyl)-1-ethyl-5-nitroimidazole]
Survivors (Salmonella gallinarum; 0.006% in feed, 5 chicks tested): 3 | Survivors (Salmonella gallinarum; 0.025% in feed, 5 chicks tested): 5 | Survivors (Salmonella gallinarum; 0.1% in feed, 10 chicks tested): 10 | responders at 512 mg/kg [4]: 100% | responders at 2 mg (Pasteurella multocida [2]): 80%

Cn1c([N+](=O)[O-])cnc1C=NN1CCOC1=O [3-[(1-methyl-5-nitro-2-imidazolylmethylene)amino]-2-oxazolidinone]
antibacterial activity, in words (bacteria): some antibacterial activity

CNc1nnc(-c2ncc([N+](=O)[O-])n2C)s1 [2-(2-Methylamino-5-thiadiazolyl)-1-methyl-5-nitroimidazole]
Survivors (Salmonella gallinarum; 0.1% in feed, 5 chicks tested): 3 | Results alive/tested (Proteus mirabilis): 4/5 | responders at 512 mg/kg [4]: 80%

O=C1OCCN1/N=C/c1ccc([N+](=O)[O-])o1 [Furazolidone]
Median Survival Time ([5]; 50 ppm in diet): 6.8 days | Survivors Per Total ([5]; 50 ppm in diet ([…] per day nitroimidazole, 2.1 furazolidone)): 0/10 | Median Survival Time ([5]; 200 ppm in diet): 10.0 days | Survivors Per Total ([5]; 200 ppm in diet (12.3 mg/kg per day nitroimidazole, 7.5 furazolidone), *9/10 differs significantly from infected-untreated (P<.01)): 2/10

CCn1c([N+](=O)[O-])cnc1-c1nnc(N)s1 [2-(2-Amino-5-thiadiazolyl)-1-ethyl-5-nitroimidazole]
Survivors (Salmonella gallinarum; [8]): 9 | Survivors (Salmonella gallinarum; 0.1% in feed, 10 chicks tested): 10 | Survivors ([6]; 0.025% in mouse chow): 3 | Survivors ([6]; 0.1 % in mouse chow): 9 | responders at 512 mg/kg [4]: 100% | responders at 2 mg (Pasteurella multocida [2]): 100%

Cn1c([N+](=O)[O-])cnc1C=NN1CCNC1=O [1-[(1-methyl-5-nitro-2-imidazolylmethylene)amino]-2-imidazolidinone]
antibacterial activity, in words (bacteria): some antibacterial activity

Cn1c([N+](=O)[O-])cnc1-c1nnc(N)s1 [2-(2-Amino-5-Thiadiazolyl)-1-methyl-5-nitroimidazole]
absorption, in words ([7]; mice): rapidly absorbed | Cmax ([7]; in vivo, 89 mg/kg): 14000 to 18000 ng/mL | Cmax ([7]; plasma, 0.2 mg/kg): < 1000 ng/mL | Cmax ([7]; plasma, 16 mg/kg): 2000 to 4000 ng/mL | Cmax ([7]; plasma, 56 mg/kg): 6000 to 12000 ng/mL | solubility in water, in words (solubility in water): relatively insoluble in water

CN(C)CCCN1CCN(c2nnc(-c3ncc([N+](=O)[O-])n3C)s2)CC1 [2-{2-[4-(3-Dimethylaminopropyl)-1-piperazinyl]-5-thiadiazolyl}-1-methyl-5-nitroimidazole]
responders at 256 mg/kg [1]: 60% | responders at 2 mg (Pasteurella multocida [2]): 100%

CN(C)c1nnc(-c2ncc([N+](=O)[O-])n2C)o1 [2-(2-Dimethylamino-5-oxadiazolyl)-1-methyl-5-nitroimidazole]
Survivors (Salmonella gallinarum; [9]): 2 | Survivors (Salmonella gallinarum; [8]): 9 | Survivors (Salmonella gallinarum; 0.1% in feed, 10 chicks tested): 9 | responders at 512 mg/kg [4]: 100%

Cn1c([N+](=O)[O-])cnc1-c1nnc(N)o1 [2-(2-Amino-5-oxadiazolyl)-1-methyl-5-nitroimidazole]
Survivors (Escherichia coli; 5 mg/kg single oral dose): 7 | Survivors (Escherichia coli; 20 mg/kg single oral dose): 13 | Survivors (Escherichia coli; 80 mg/kg single oral dose): 15 | Survivors (Salmonella gallinarum; [9]): 9 | Survivors (Salmonella gallinarum; [8]): 10 | Survivors (Salmonella gallinarum; 0.1% in feed, 10 chicks tested): 10 | responders at 512 mg/kg [4]: 100% | responders at 2 mg (Pasteurella multocida [2]): 70% | responders at 0.25 mg (Pasteurella multocida [3]): 10% | responders at 0.5 mg (Pasteurella multocida [3]): 15% | responders at 1 mg (Pasteurella multocida [3]): 40%
